Measurements reported in PMC5554537 (Frontiers in Pharmacology, 2017).

How the values were obtained:
in vivo [1] = conditions: NIH-III, mouse, in vivo, ip
Method: SN30000, M14 and M18 dosing solutions were prepared fresh in normal saline, filtered through 0.45 μm Acrodisc filters (Pall Life Sciences, Port Washington, NY, United States), protected from light in amber vials, and used within 3 h. Doses are expressed as mg of free base equivalent for SN30000 and M14, and free acid in the case of M18. […] For evaluation of acute toxicity, mice were observed continuously for 3 h after dosing, and their activity rated on a lethargy score from 0 representing no change in activity to 5 representing animals that were moribund and required culling. For MTD studies, the animals were checked daily for clinical signs of toxicity and body weight change for 2 weeks. In some studies rectal temperature changes after dosing were measured using a BAT-12 digital microprobe thermometer (Physitemp Instruments, Clifton, NJ, United States) at the times specified in the figures. Blood samples were collected from mice at various times by cardiac puncture, seconds after cervical dislocation, into ice-cold tubes containing K2EDTA. These were placed on ice immediately after collection and centrifuged (3,000 g, 3 min) within 10 min to harvest plasma. Plasma and tissues were rapidly frozen in liquid nitrogen before storage at -80°C for subsequent bioanalysis.
(§1) Concentration-time data were analyzed by non-compartmental analysis using Phoenix WinNonlin (ver 6.4, Build 6.4.0768 Pharsight, United States); all AUC values were extrapolated to infinity using the linear trapezoidal rule. A compartmental model for plasma PK after dosing with SN30000 or M14 was fitted using Phoenix NLME v1.3 with random effects on the metabolite volumes of distribution, and temperature effects based on the observed body temperature at the last measurement time. Temperature effects were added or removed until there was no significant change in the log likelihood. Model fits were further assessed by visual inspection of the residuals and predicted PK.

[2] = Compartmental plasma PK model; type: in vivo; parameters: Absorption rate constant Ka: unit not given here; conditions: for Central compartment volume V1: 1-Oxide and Nor-oxide values fixed
From the text: This model, shown schematically in Figure 9, is based on total (free + bound) plasma concentrations; the major metabolites (M14, M13, and M18) are explicit and clearance of SN30000 occurs only by reduction to M14. The i.p. bioavailability of SN30000 was modeled with an additional term for loss from the peritoneal compartment (kloss).

NIH-III mice = assay: Core body (rectal) temperature and acute clinical signs after dosing; type: in vivo
Method: Supplementary Figure 3. Initial rates of core temperature decrease in (untreated) NIH-III mice post- mortem: co mparison with initial temperature change ante- mortem following treatment with benzotriazine oxides at their MTD. Temperature was measured in rectu m and liver over 15 min. Initial rates of temperature loss (°C/min) were: post- mortem (rectum):
(rectum) 0.33. The rectal temperature loss following dosing with M14 (135 mg/kg) was 0.6 °C/min (not shown for clarity). The drug-induced changes are redrawn from Fig. 4.

[3] = Plasma, liver and brain PK after i.p. dosing with M14; type: in vivo; conditions: i.p. M14 135 mg/kg; for half-life: read-out: Terminal T1/2
Method: as §1

in vivo [4] = conditions: NIH-III nude, mouse, in vivo
Method: SN30000, M14 and M18 dosing solutions were prepared fresh in normal saline, filtered through 0.45 μm Acrodisc filters (Pall Life Sciences, Port Washington, NY, United States), protected from light in amber vials, and used within 3 h. Doses are expressed as mg of free base equivalent for SN30000 and M14, and free acid in the case of M18. […] Blood samples were collected from mice at various times by cardiac puncture, seconds after cervical dislocation, into ice-cold tubes containing K2EDTA. These were placed on ice immediately after collection and centrifuged (3,000 g, 3 min) within 10 min to harvest plasma. Plasma and tissues were rapidly frozen in liquid nitrogen before storage at -80°C for subsequent bioanalysis.
M18 was quantified by absorbance detection with reference to an external standard calibration curve.
Concentration-time data were analyzed by non-compartmental analysis using Phoenix WinNonlin (ver 6.4, Build 6.4.0768 Pharsight, United States); all AUC values were extrapolated to infinity using the linear trapezoidal rule. […] Model fits were further assessed by visual inspection of the residuals and predicted PK.

[5] = Stability in mouse liver homogenates (QC samples); type: physicochemical
From the text: using octa-deuterated internal standards of SN30000, M13 and M14 synthesised as previously reported (Wang et al., 2012). Intra- and inter-day precision (expressed as relative standard deviation (RSD) and accuracy (expressed as percentage of the nominal value) were deter mined by analy sis of replicates (n=6) of low and high quality control (QC) samples on three different days. The lower limit of quantitation (LLOQ) was defined as the lowest concentration providing RSD and accuracy < 20%. Recovery from plasma and liver ho mogenates was tested at the three QC levels. The recoveries were evaluated by comparing extracted samples with blank extracted solutions spiked with analytes of the same amount.
Matrix effects, defined as the change in response due to the presence of other substances in the samples, were evaluated by comparing the analytes diluted into the blank plasma or liver extracted solution with that of the same stock solutions diluted in water. Three different concentration levels (low, medium and high QC) were evaluated by analysing three samples at each level. Accuracy , precision, recovery and matrix effects were all acceptable over the concentration ranges evaluated for plas ma (Supplementary Table 1) and for liver homogenates (Supplementary Table 2).
Stability of the analytes in mouse plasma (Supplementary Table 3) or liver homogenate (Supplementary Table 4) was confirmed during holding of QC samples on ice for up to 2 h under nor mal laboratory lighting, although there was a trend towards loss of SN30000 in plasma samples held in clear microcentrifuge tubes which may reflect the known photosensitivity of the compound (Gu et al., 2014). This loss was reduced by use of red microcentrifuge tubes, and eliminated by black tubes. Stability in both matrices was also confir med for one month storage at -80°C and for three freeze-thaw cycles, while MeOH-deproteinised samples w ere stable for 12 h at 4°C in the autosampler (Supplementary Tables

[6] = liver homogenate deproteinised in 3 vol MeOH, 12 h autosampler at 4°C, nominal SN30000 0.5, M14 0.25, M13 0.1 µM
[7] = liver homogenate deproteinised in 3 vol MeOH, 12 h autosampler at 4°C, nominal SN30000 5, M14 2.5, M13 1 µM
[8] = liver homogenate deproteinised in 3 vol MeOH, 12 h autosampler at 4°C, nominal SN30000 50, M14 25, M13 10 µM
[9] = liver homogenate, 1 month at -80°C, nominal SN30000 0.5, M14 0.25, M13 0.1 µM
[10] = liver homogenate, 1 month at -80°C, nominal SN30000 5, M14 2.5, M13 1 µM
[11] = liver homogenate, 1 month at -80°C, nominal SN30000 50, M14 25, M13 10 µM
[12] = liver homogenate, 1h on ice, clear tubes, nominal SN30000 0.5, M14 0.25, M13 0.1 µM
[13] = liver homogenate, 1h on ice, clear tubes, nominal SN30000 5, M14 2.5, M13 1 µM
[14] = liver homogenate, 1h on ice, clear tubes, nominal SN30000 50, M14 25, M13 10 µM
[15] = liver homogenate, 2h on ice, nominal SN30000 0.5, M14 0.25, M13 0.1 µM
[16] = liver homogenate, 2h on ice, nominal SN30000 5, M14 2.5, M13 1 µM
[17] = liver homogenate, 2h on ice, nominal SN30000 50, M14 25, M13 10 µM
[18] = liver homogenate, three freeze-thaw cycles, nominal SN30000 0.5, M14 0.25, M13 0.1 µM
[19] = liver homogenate, three freeze-thaw cycles, nominal SN30000 5, M14 2.5, M13 1 µM
[20] = liver homogenate, three freeze-thaw cycles, nominal SN30000 50, M14 25, M13 10 µM

**Q.** Which results are given for O=C(O)CCc1nc2cc3c(cc2[n+]([O-])n1)CCC3 [M18]?
**A.** AUC (in vivo [1]; 1.86 mg/kg): 1.06 µM·h; Cmax (in vivo [1]; 1.86 mg/kg): 0.65 µM; half-life (in vivo [1]; 1.86 mg/kg): 102 min; AUC (in vivo [1]; 18.6 mg/kg): 10.8 µM·h; Cmax (in vivo [1]; 18.6 mg/kg): 5.44 µM; half-life (in vivo [1]; 18.6 mg/kg): 220 min; AUC (in vivo [1]; 78.3 mg/kg): 51.5 µM·h; Cmax (in vivo [1]; 78.3 mg/kg): 23.4 µM; half-life (in vivo [1]; 78.3 mg/kg): 35.5 min; AUC (in vivo [1]; 92.8 mg/kg): 116 µM·h; Cmax (in vivo [1]; 92.8 mg/kg): 52.8 µM; half-life (in vivo [1]; 92.8 mg/kg): 145 min; AUC (in vivo [1]; 186 mg/kg): 204 µM·h; Cmax (in vivo [1]; 186 mg/kg): 79.5 µM; half-life (in vivo [1]; 186 mg/kg): 1210 min; Central compartment volume V1 [2]: 0.43 L/kg; clearance ([2]; NIH-III, mouse, in vivo, model clearance of the compound, read-out: CL (converted)): 3.83 mL/min/kg; Body weight loss (NIH-III mice; 36 mg/kg): no body weight loss was observed; Acute clinical signs and hypothermic response (NIH-III mice; 36 mg/kg i.p. or i.v.): no acute clinical signs or hypothermic response were observed; half-life ([3]; NIH-III nude, mouse, in vivo, ip, 135 mg/kg, liver): 144 min; Cmax ([3]; NIH-III nude, mouse, in vivo, ip, 135 mg/kg, plasma, read-out: Cmax): 144 ± 5.3 µM; half-life ([3]; NIH-III nude, mouse, in vivo, ip, 135 mg/kg, plasma): 182 min; Detection in brain [3]: undetectable in brain; AUC ([3]; liver): 93.3 µmol·h/kg; Cmax ([3]; liver): 40.0 ± 3.0 µmol/kg; AUC ([3]; plasma): 349 µmol·h/kg; AUC (in vivo [4]; iv, 1.86 mg/kg): 0.77 µM·h; AUC (in vivo [4]; iv, 18.6 mg/kg): 10.1 µM·h; half-life (in vivo [4]; iv, 18.6 mg/kg): 101 min; AUC (in vivo [4]; iv, 78.3 mg/kg): 60.9 µM·h; half-life (in vivo [4]; iv, 78.3 mg/kg): 75 min

**Q.** Which results are given for [O-][n+]1nc(CCCN2CCOCC2)[n+]([O-])c2cc3c(cc21)CCC3 [SN30000, 3-(3-Morpholinopropyl)-7,8-dihydro-6H-indeno[5,6-e][1,2,4]triazine 1,4-dioxide]?
**A.** bioavailability (in vivo [1]): ~30%; AUC (in vivo [1]; 1.86 mg/kg): 0.17 µM·h; Cmax (in vivo [1]; 1.86 mg/kg): 0.59 µM; half-life (in vivo [1]; 1.86 mg/kg): 20.8 min; AUC (in vivo [1]; 18.6 mg/kg): 2.1 µM·h; Cmax (in vivo [1]; 18.6 mg/kg): 6.8 µM; half-life (in vivo [1]; 18.6 mg/kg): 25 min; bioavailability (in vivo [1]; 78 mg/kg): ~70%; AUC (in vivo [1]; 78.3 mg/kg): 31.5 µM·h; Cmax (in vivo [1]; 78.3 mg/kg): 60.8 µM; half-life (in vivo [1]; 78.3 mg/kg): 16.1 min; AUC (in vivo [1]; 92.8 mg/kg): 49.2 µM·h; Cmax (in vivo [1]; 92.8 mg/kg): 77.9 µM; half-life (in vivo [1]; 92.8 mg/kg): 19.7 min; AUC (in vivo [1]; 186 mg/kg): 155 µM·h; Cmax (in vivo [1]; 186 mg/kg): 229 µM; half-life (in vivo [1]; 186 mg/kg): 42.5 min; Central compartment volume V1 [2]: 1.95 L/kg; Temperature effect (N) on Kloss for i.p. SN30000 ([2]; (1+ΔT)^-N): 2.80; Intercompartmental clearance Clic ([2]; NIH-III, mouse, in vivo): 18.7 mL/min/kg; Peripheral compartment volume V2 ([2]; NIH-III, mouse, in vivo): 0.64 L/kg; Approximate % suppression per °C of Kloss for i.p. SN30000 ([2]; NIH-III, mouse, in vivo, ip): ~86%; clearance ([2]; NIH-III, mouse, in vivo, model clearance): 189 mL/min/kg; Absorption rate constant Ka ([2]; i.p. dosing compartment, SN30000 value fixed): 60; Kloss for i.p. SN30000 ([2]; loss from peritoneal compartment): 67.48 L/h; Drop in rectal temperature at nadir, below controls (NIH-III mice; i.p. MTD dose (186 mg/kg)): ~8 °C; Time of temperature nadir (NIH-III mice; i.p. MTD dose (186 mg/kg)): approximately 30 min; Initial rate of temperature loss (rectum) (NIH-III mice; i.p. SN30000 186 mg/kg, TPZ 31.7 mg/kg, M14 135 mg/kg): 0.52 °C/min; clearance (in vivo [4]; 78 mg/kg): 84 mL/min/kg; clearance (in vivo [4]; iv): 83.3 to 167 mL/min/kg; AUC (in vivo [4]; iv, 1.86 mg/kg): 0.53 µM·h; Cmax (in vivo [4]; iv, 1.86 mg/kg): 1.86 ± 0.13 µM; Vd (in vivo [4]; iv, 1.86 mg/kg): 1.52 L/kg; clearance (in vivo [4]; iv, 1.86 mg/kg): 177 mL/min/kg; half-life (in vivo [4]; iv, 1.86 mg/kg): 8.03 min; AUC (in vivo [4]; iv, 18.6 mg/kg): 8.1 µM·h; Cmax (in vivo [4]; iv, 18.6 mg/kg): 25.2 ± 0.27 µM; Vd (in vivo [4]; iv, 18.6 mg/kg): 1.29 L/kg; clearance (in vivo [4]; iv, 18.6 mg/kg): 116 mL/min/kg; half-life (in vivo [4]; iv, 18.6 mg/kg): 27.6 min; AUC (in vivo [4]; iv, 78.3 mg/kg): 47 µM·h; Cmax (in vivo [4]; iv, 78.3 mg/kg): 81.9 ± 2.71 µM; Vd (in vivo [4]; iv, 78.3 mg/kg): 2.24 L/kg; clearance (in vivo [4]; iv, 78.3 mg/kg): 84 mL/min/kg; half-life (in vivo [4]; iv, 78.3 mg/kg): 23.9 min; Bias [5, 6]: 3.36%; Measured conc [5, 6]: 0.52 µM; Bias [5, 7]: 2.86%; Measured conc [5, 7]: 5.14 µM; Bias [5, 8]: 6.75%; Measured conc [5, 8]: 53.37 µM; Bias [5, 9]: 1.98%; Measured conc [5, 9]: 0.52 µM; Bias [5, 10]: 4.40%; Measured conc [5, 10]: 4.77 µM; Bias [5, 11]: 4.71%; Measured conc [5, 11]: 47.06 µM; Bias [5, 12]: 2.46%; Measured conc [5, 12]: 0.51 µM; Bias [5, 13]: 4.72%; Measured conc [5, 13]: 5.24 µM; Bias [5, 14]: 6.87%; Measured conc [5, 14]: 53.43 µM; Bias [5, 15]: -3.26%; Measured conc [5, 15]: 0.48 µM; Bias [5, 16]: 2.72%; Measured conc [5, 16]: 5.14 µM; Bias [5, 17]: 1.20%; Measured conc [5, 17]: 50.60 µM; Bias [5, 18]: -10.74%; Measured conc [5, 18]: 0.45 µM; Bias [5, 19]: -8.29%; Measured conc [5, 19]: 4.59 µM; Bias [5, 20]: 4.78%; Measured conc [5, 20]: 52.39 µM
